Read-outs that look alike come from different tables or passages of the source.
Assays:
[1] = target: panel of 255 wild-type kinases (Homo sapiens, UniProt Q9H422); experiment: Kinase panel profiling at 1 µmol/L (MSA or IMAP), percentage inhibition; format: biochemical; conditions: kinase HIPK3; 1 µmol/L single concentration; read-out: %-inhibition at 1 µmol/L, HIPK3
[2] = target: panel of 255 wild-type kinases (Homo sapiens, UniProt P48729); experiment: as above; format: biochemical; conditions: kinase CK1α; 1 µmol/L single concentration; read-out: %-inhibition at 1 µmol/L, CK1α
[3] = target: panel of 255 wild-type kinases (Homo sapiens, UniProt Q13882); experiment: as above; format: biochemical; conditions: BRK kinase assay; 1 µmol/L single concentration; read-out: %-inhibition BRK
[4] = target: panel of 255 wild-type kinases (Homo sapiens, UniProt P06241); experiment: as above; format: biochemical; conditions: kinase FYN [isoform a]; 1 µmol/L single concentration; read-out: %-inhibition at 1 µmol/L, FYN [isoform a]
[5] = target: panel of 255 wild-type kinases (Homo sapiens, UniProt Q16816); experiment: as above; format: biochemical; conditions: kinase PHKG1; 1 µmol/L single concentration; read-out: %-inhibition at 1 µmol/L, PHKG1
134 cancer cell lines = experiment: Cell viability assay (ATPlite, 72 hours), IC50 on cancer cell line panel

## CCN1CCN(c2ccc(Nc3cc(N(C)C(=O)Nc4c(Cl)c(OC)cc(OC)c4Cl)ncn3)cc2)CC1 [infigratinib]
[1]
  inhibition at 1 µM: -3.71%
[2]
  inhibition at 1 µM: -7.38%
[3]
  inhibition at 1 µM: 5.46%
[4]
  inhibition at 1 µM: 40%
[5]
  inhibition at 1 µM: 0.355%
134 cancer cell lines; HEC-6, read-out: IC50 in cell proliferation assay, HEC-6 cell line (EGFR p.A289V)
  IC50: > 3.16 µM
134 cancer cell lines; Homo sapiens, 769-P, read-out: IC50 in cell proliferation assay, cell line 769-P
  IC50: > 3.16 µM
134 cancer cell lines; Homo sapiens, 786-0, read-out: IC50 in cell proliferation assay, cell line 786-O
  IC50: > 3.16 µM
134 cancer cell lines; Homo sapiens, A 172, read-out: IC50 in cell proliferation assay, cell line A-172
  IC50: 0.041 µM
134 cancer cell lines; Homo sapiens, A204, read-out: IC50 in cell proliferation assay, cell line A-204
  IC50: 0.063 µM
134 cancer cell lines; Homo sapiens, A498, read-out: IC50 in cell proliferation assay, cell line A-498
  IC50: 2.97 µM
134 cancer cell lines; Homo sapiens, A549, read-out: IC50 in cell proliferation assay, cell line A-549
  IC50: > 3.16 µM
134 cancer cell lines; Homo sapiens, A704, read-out: IC50 in cell proliferation assay, cell line A-704
  IC50: > 3.16 µM
134 cancer cell lines; Homo sapiens, A-375, read-out: IC50 in cell proliferation assay, cell line A-375 (BRAF p.V600E)
  IC50: > 3.16 µM
134 cancer cell lines; Homo sapiens, A-427, read-out: IC50 in cell proliferation assay, cell line A-427
  IC50: 1.79 µM
134 cancer cell lines; Homo sapiens, ACHN, read-out: IC50 in cell proliferation assay, cell line ACHN
  IC50: 2.75 µM
134 cancer cell lines; Homo sapiens, AN3-CA, read-out: IC50 in cell proliferation assay, cell line AN3-CA (FGFR2 p.N549K)
  IC50: 0.203 µM
134 cancer cell lines; Homo sapiens, ASPC1, read-out: IC50 in cell proliferation assay, cell line AsPC-1
  IC50: > 3.16 µM
134 cancer cell lines; Homo sapiens, AU565, read-out: IC50 in cell proliferation assay, cell line AU565 (ERBB2 amplification)
  IC50: > 3.16 µM
134 cancer cell lines; Homo sapiens, BT-20, read-out: IC50 in cell proliferation assay, cell line BT-20
  IC50: > 3.16 µM
134 cancer cell lines; Homo sapiens, BT-474, read-out: IC50 in cell proliferation assay, cell line BT-474 (ERBB2 amplification)
  IC50: > 3.16 µM
134 cancer cell lines; Homo sapiens, BT-549, read-out: IC50 in cell proliferation assay, cell line BT-549
  IC50: > 3.16 µM
134 cancer cell lines; Homo sapiens, BXPC-3, read-out: IC50 in cell proliferation assay, cell line BxPC-3
  IC50: > 3.16 µM
134 cancer cell lines; Homo sapiens, C-33-A, read-out: IC50 in cell proliferation assay, cell line C-33 A
  IC50: > 3.16 µM
134 cancer cell lines; Homo sapiens, CAL-27, read-out: IC50 in cell proliferation assay, cell line CAL-27
  IC50: > 3.16 µM
134 cancer cell lines; Homo sapiens, CCF-STTG1, read-out: IC50 in cell proliferation assay, cell line CCF-STTG1
  IC50: > 3.16 µM
134 cancer cell lines; Homo sapiens, CCRF-CEM, read-out: IC50 in cell proliferation assay, cell line CCRF-CEM
  IC50: > 3.16 µM
134 cancer cell lines; Homo sapiens, COLO 205, read-out: IC50 in cell proliferation assay, cell line COLO 205 (BRAF p.V600E)
  IC50: > 3.16 µM
134 cancer cell lines; Homo sapiens, COLO-829, read-out: IC50 in cell proliferation assay, cell line COLO 829 (BRAF p.V600E)
  IC50: > 3.16 µM
134 cancer cell lines; Homo sapiens, DLD-1, read-out: IC50 in cell proliferation assay, cell line DLD-1
  IC50: > 3.16 µM
134 cancer cell lines; Homo sapiens, DU-4475, read-out: IC50 in cell proliferation assay, cell line DU4475 (BRAF p.V600E)
  IC50: > 3.16 µM
134 cancer cell lines; Homo sapiens, Daoy, read-out: IC50 in cell proliferation assay, cell line Daoy
  IC50: > 3.16 µM
134 cancer cell lines; Homo sapiens, DoTc2-4510, read-out: IC50 in cell proliferation assay, cell line DoTc2 4510
  IC50: > 3.16 µM
134 cancer cell lines; Homo sapiens, FaDu, read-out: IC50 in cell proliferation assay, cell line FaDu
  IC50: > 3.16 µM
134 cancer cell lines; Homo sapiens, G-361, read-out: IC50 in cell proliferation assay, cell line G-361 (BRAF p.V600E)
  IC50: > 3.16 µM
134 cancer cell lines; Homo sapiens, HCC827, read-out: IC50 in cell proliferation assay, cell line HCC827 (EGFR exon19del)
  IC50: 5 µM
134 cancer cell lines; Homo sapiens, HCC4006, read-out: IC50 in cell proliferation assay, cell line HCC4006 (EGFR exon19del)
  IC50: 6.22 µM
134 cancer cell lines; Homo sapiens, HCT-15, read-out: IC50 in cell proliferation assay, cell line HCT 15
  IC50: > 3.16 µM
134 cancer cell lines; Homo sapiens, HCT-116, read-out: IC50 in cell proliferation assay, cell line HCT 116
  IC50: > 3.16 µM
134 cancer cell lines; Homo sapiens, HEC-1, read-out: IC50 in cell proliferation assay, HEC-1 cell line
  IC50: 3.04 µM
134 cancer cell lines; Homo sapiens, HEC-1B, read-out: IC50 in cell proliferation assay, HEC-1-B cell line (EGFR p.A864V)
  IC50: > 3.16 µM
134 cancer cell lines; Homo sapiens, HL-60, read-out: IC50 in cell proliferation assay, HL-60 cell line
  IC50: > 3.16 µM
134 cancer cell lines; Homo sapiens, HT, read-out: IC50 in cell proliferation assay, HT cell line
  IC50: > 3.16 µM
134 cancer cell lines; Homo sapiens, HT-1080, read-out: IC50 in cell proliferation assay, HT-1080 cell line
  IC50: 2.99 µM
134 cancer cell lines; Homo sapiens, Hs-578T, read-out: IC50 in cell proliferation assay, Hs 578T cell line
  IC50: > 3.16 µM
134 cancer cell lines; Homo sapiens, HuTu80, read-out: IC50 in cell proliferation assay, HuTu 80 cell line
  IC50: 0.039 µM
134 cancer cell lines; Homo sapiens, J82, read-out: IC50 in cell proliferation assay, J82 cell line
  IC50: > 3.16 µM
134 cancer cell lines; Homo sapiens, Jurkat E6.1, read-out: IC50 in cell proliferation assay, Jurkat E6.1 cell line
  IC50: > 3.16 µM
134 cancer cell lines; Homo sapiens, K562, read-out: IC50 in cell proliferation assay, K-562 cell line
  IC50: > 3.16 µM
134 cancer cell lines; Homo sapiens, KATO III, read-out: IC50 in cell proliferation assay, KATO III cell line (FGFR2 amplification)
  IC50: 0.008 µM
134 cancer cell lines; Homo sapiens, KG-1, read-out: IC50 in cell proliferation assay, KG-1 cell line (FGFR1OP2-FGFR1)
  IC50: 0.00229 µM
134 cancer cell lines; Homo sapiens, KLE, read-out: IC50 in cell proliferation assay, KLE cell line
  IC50: > 3.16 µM
134 cancer cell lines; Homo sapiens, KMS-11, read-out: IC50 in cell proliferation assay, KMS-11 cell line (FGFR3 p.Y373C)
  IC50: 0.026 µM
134 cancer cell lines; Homo sapiens, KU812, read-out: IC50 in cell proliferation assay, Ku812 cell line
  IC50: > 3.16 µM
134 cancer cell lines; Homo sapiens, Kasumi 1, read-out: IC50 in cell proliferation assay, Kasumi-1 cell line (KIT p.N822K)
  IC50: 3.42 µM
134 cancer cell lines; Homo sapiens, LC-2-ad, read-out: IC50 in cell proliferation assay, LC-2/ad cell line (CCDC6-RET)
  IC50: 3.45 µM
134 cancer cell lines; Homo sapiens, LNCaP-Clone-FGC, read-out: IC50 in cell proliferation assay, LNCaP clone FGC cell line
  IC50: > 3.16 µM
134 cancer cell lines; Homo sapiens, LS174T, read-out: IC50 in cell proliferation assay, LS174T cell line
  IC50: > 3.16 µM
134 cancer cell lines; Homo sapiens, LS-411N, read-out: IC50 in cell proliferation assay, LS411N cell line (BRAF p.V600E)
  IC50: > 3.16 µM
134 cancer cell lines; Homo sapiens, LoVo, read-out: IC50 in cell proliferation assay, LoVo cell line
  IC50: > 3.16 µM
134 cancer cell lines; Homo sapiens, MCF7, read-out: IC50 in cell proliferation assay, MCF-7 cell line
  IC50: > 3.16 µM
134 cancer cell lines; Homo sapiens, MDA-MB-231, read-out: IC50 in cell proliferation assay, MDA-MB-231 cell line
  IC50: > 3.16 µM
134 cancer cell lines; Homo sapiens, MDA-MB-453, read-out: IC50 in cell proliferation assay, MDA-MB-453 cell line
  IC50: 0.655 µM
134 cancer cell lines; Homo sapiens, MDA-MB-468, read-out: IC50 in cell proliferation assay, MDA-MB-468 cell line
  IC50: > 3.16 µM
134 cancer cell lines; Homo sapiens, MG-63, read-out: IC50 in cell proliferation assay, MG-63 cell line
  IC50: 0.189 µM
134 cancer cell lines; Homo sapiens, MIA PaCa-2, read-out: IC50 in cell proliferation assay, MIA PaCa-2 cell line
  IC50: > 3.16 µM
134 cancer cell lines; Homo sapiens, MKN-45, read-out: IC50 in cell proliferation assay, MKN45 cell line (MET amplification)
  IC50: 4.26 µM

From PMC9516332 (Frontiers in Oncology, 2022)
